Drawing on ChEMBL document CHEMBL1268977, “Efficient synthesis, spectral analysis and antimicrobial studies of nitrogen and sulfur containing spiro heterocycles from 2,4-diaryl-3-azabicyclo[3.3.1]nonan-9-ones” (2010), this text covers MIC and inhibition for two compounds.

In brackets after ≈: the same amount, converted by molar mass. Activity calls are given as the source filed them. The rule behind the calls is not given here.

The subject of test [1] is Staphylococcus aureus. The test can be described thus: Antibacterial activity against Staphylococcus aureus ATCC 25930 after 24 hrs by serial dilution method. The format is functional. The conditions noted are these: ATCC 25930, 24 h.
In test [2] the test system is Cryptococcus neoformans. The test can be described thus: Antifungal activity against Cryptococcus neoformans ATCC 3235 after 72 to 96 hrs by serial dilution method. The format is functional.
The subject of test [3] is Candida albicans. The test can be described thus: Antifungal activity against Candida albicans ATCC 3430 after 72 to 96 hrs by serial dilution method. The format is functional.
Test [4] has as its system Escherichia coli. The experiment in a line: Antibacterial activity against Escherichia coli ATCC 26032 after 24 hrs by serial dilution method. The format is functional. The conditions noted are these: ATCC 26032, 24 h.
In test [5] the test system is Aspergillus niger. The test can be described thus: Antifungal activity against Aspergillus niger ATCC 635 at 200 ug/ml after 72 to 96 hrs by serial dilution method. The format is functional, organism-based.
For test [6], the system named is Bacillus subtilis. The experiment in a line: Antibacterial activity against Bacillus subtilis ATCC 530 after 24 hrs by serial dilution method. The format is functional. The conditions noted are these: ATCC 530, 24 h.
The subject of test [7] is Salmonella typhi. The experiment in a line: Antibacterial activity against Salmonella typhi ATCC 25021 after 24 hrs by serial dilution method. The format is functional, Salmonella enterica subsp. enterica serovar Typhi. The conditions noted are these: Salmonella enterica, ATCC 25021, 24 h.
The subject of test [8] is Klebsiella pneumoniae. The test can be described thus: Antibacterial activity against Klebsiella pneumoniae ATCC 16425 at 200 ug/ml after 24 hrs by serial dilution method. The format is functional, organism-based.
The subject of test [9] is Aspergillus flavus. The test can be described thus: Antifungal activity against Aspergillus flavus ATCC 525 after 72 to 96 hrs by serial dilution method. The format is functional.
Test [10] has as its system Rhizopus. The test can be described thus: Antifungal activity against Rhizopus species ATCC 2842 after 72 to 96 hrs by serial dilution method. The format is functional.
The test system of test [11] is Aspergillus niger. The experiment in a line: Antifungal activity against Aspergillus niger ATCC 635 after 72 to 96 hrs by serial dilution method. The format is functional.
The subject of test [12] is Escherichia coli. The experiment in a line: Antibacterial activity against Escherichia coli ATCC 26032 at 200 ug/ml after 24 hrs by serial dilution method. The format is functional, organism-based.
The test system of test [13] is Klebsiella pneumoniae. The experiment in a line: Antibacterial activity against Klebsiella pneumoniae ATCC 16425 after 24 hrs by serial dilution method. The format is functional. The conditions noted are these: ATCC 16425, 24 h.

For orientation: MIC means the least concentration at which growth counts as inhibited. The low end stands for inhibition by little substance, the high end for a need for much substance. Take `CCC(=O)NC1=NN(C(=O)CC)C2(S1)C1CCCC2C(c2cccc(OC)c2)N(C(=O)CC)C1c1cccc(OC)c1` (stereo not given): the MIC in test [1] was found to be 100 µg/mL (≈ 169 µM); in test [2], 200 µg/mL (≈ 337 µM); in [3], 25 µg/mL (≈ 42.2 µM); in test [4] it was 50 µg/mL (≈ 84.4 µM); in test [6] it was 50 µg/mL (≈ 84.4 µM); in test [7] it was 200 µg/mL (≈ 337 µM). In addition, the MIC in [9] was 25 µg/mL (≈ 42.2 µM); in [10], 50 µg/mL (≈ 84.4 µM). For the same compound, the inhibition result in test [5] and in [8] was “inactive” throughout.

For `COc1cccc(C2NC(c3cccc(OC)c3)C3CCCC2C32SC(NC(C)=O)=NN2C(C)=O)c1` (stereo not given), the MIC in [1] worked out at 100 µg/mL (≈ 197 µM); in test [2], 50 µg/mL (≈ 98.3 µM); in test [11], 100 µg/mL (≈ 197 µM); in test [3], 25 µg/mL (≈ 49.2 µM); in test [4], 200 µg/mL (≈ 393 µM); in [6], 50 µg/mL (≈ 98.3 µM). Moreover, the MIC was determined as 100 µg/mL (≈ 197 µM) in test [13], 200 µg/mL (≈ 393 µM) in test [9] and 50 µg/mL (≈ 98.3 µM) in test [10]. Also, in test [12], the inhibition entry is “inactive”.
